Among the data in ChEMBL document CHEMBL1909046, “DrugMatrix in vitro pharmacology data” are IC50 and Ki values, retold here.

Receptor tyrosine-protein kinase erbB-2, sequence (P04626 whole entry): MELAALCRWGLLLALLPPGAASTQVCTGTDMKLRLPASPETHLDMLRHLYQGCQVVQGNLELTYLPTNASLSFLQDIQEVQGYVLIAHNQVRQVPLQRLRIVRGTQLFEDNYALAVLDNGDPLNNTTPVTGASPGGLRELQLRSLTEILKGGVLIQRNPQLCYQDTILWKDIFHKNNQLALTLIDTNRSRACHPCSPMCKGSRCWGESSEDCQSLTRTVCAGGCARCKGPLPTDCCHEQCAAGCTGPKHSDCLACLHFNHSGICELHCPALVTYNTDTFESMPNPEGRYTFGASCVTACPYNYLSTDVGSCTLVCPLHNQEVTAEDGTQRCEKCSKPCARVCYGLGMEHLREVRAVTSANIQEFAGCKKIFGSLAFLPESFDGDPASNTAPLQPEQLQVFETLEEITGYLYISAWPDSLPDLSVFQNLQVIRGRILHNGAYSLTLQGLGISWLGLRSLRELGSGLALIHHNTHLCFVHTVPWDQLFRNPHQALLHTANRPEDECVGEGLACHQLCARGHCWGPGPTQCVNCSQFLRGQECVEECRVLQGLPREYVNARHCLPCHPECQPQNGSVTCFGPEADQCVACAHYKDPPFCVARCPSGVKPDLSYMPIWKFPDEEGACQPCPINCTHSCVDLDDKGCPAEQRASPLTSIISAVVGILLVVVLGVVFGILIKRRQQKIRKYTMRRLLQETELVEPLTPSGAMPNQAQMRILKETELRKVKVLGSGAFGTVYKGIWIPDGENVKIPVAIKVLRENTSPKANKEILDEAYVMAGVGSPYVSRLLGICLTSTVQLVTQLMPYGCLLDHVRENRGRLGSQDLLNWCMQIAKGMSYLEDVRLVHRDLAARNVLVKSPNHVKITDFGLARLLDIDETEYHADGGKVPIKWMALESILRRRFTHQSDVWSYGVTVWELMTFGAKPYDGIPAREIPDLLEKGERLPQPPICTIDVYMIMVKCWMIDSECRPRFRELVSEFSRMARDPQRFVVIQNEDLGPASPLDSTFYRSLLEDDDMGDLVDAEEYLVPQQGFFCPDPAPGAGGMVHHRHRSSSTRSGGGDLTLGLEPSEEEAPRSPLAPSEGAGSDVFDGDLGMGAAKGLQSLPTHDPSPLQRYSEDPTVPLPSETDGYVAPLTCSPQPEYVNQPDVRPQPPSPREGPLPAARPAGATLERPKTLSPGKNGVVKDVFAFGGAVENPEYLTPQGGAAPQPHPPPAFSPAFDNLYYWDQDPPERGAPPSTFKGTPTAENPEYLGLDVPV

The first assay deals with Sodium-dependent dopamine transporter (Homo sapiens, UniProt Q01959). Put plainly: DRUGMATRIX: Dopamine Transporter radioligand binding (ligand: [125I] RTI-55). The class given is cell membranes, CHO-K1, Membrane. Conditions: cho-k1; Not Active = under 50% inhibition at 10 µM.
Sodium-dependent dopamine transporter, sequence (Q01959 whole entry): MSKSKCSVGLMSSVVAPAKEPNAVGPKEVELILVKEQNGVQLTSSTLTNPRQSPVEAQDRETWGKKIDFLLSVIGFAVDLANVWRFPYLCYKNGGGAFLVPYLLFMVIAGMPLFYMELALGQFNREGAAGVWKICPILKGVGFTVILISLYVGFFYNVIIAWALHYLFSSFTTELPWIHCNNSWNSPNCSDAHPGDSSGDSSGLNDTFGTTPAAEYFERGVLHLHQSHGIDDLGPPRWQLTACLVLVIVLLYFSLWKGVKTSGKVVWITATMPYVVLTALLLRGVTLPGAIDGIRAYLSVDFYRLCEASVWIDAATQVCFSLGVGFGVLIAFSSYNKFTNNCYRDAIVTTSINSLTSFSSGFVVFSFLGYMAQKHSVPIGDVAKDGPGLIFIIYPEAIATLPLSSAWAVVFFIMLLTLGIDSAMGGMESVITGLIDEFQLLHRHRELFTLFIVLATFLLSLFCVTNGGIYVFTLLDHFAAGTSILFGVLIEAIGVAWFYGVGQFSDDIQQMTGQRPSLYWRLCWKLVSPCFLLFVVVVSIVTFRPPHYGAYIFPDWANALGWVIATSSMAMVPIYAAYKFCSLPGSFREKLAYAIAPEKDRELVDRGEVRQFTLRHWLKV
`CN1C2CCCC1CC(NC(=O)c1nn(C)c3ccccc13)C2` (configuration not stated) [GRANISETRON]: the IC50 entry is “Not Active”.

As for `Nc1nc2c(c(=O)[nH]1)N(C=O)C(CNc1ccc(C(=O)N[C@@H](CCC(=O)O)C(=O)O)cc1)CN2` (some centres not stated) [LEUCOVORIN], the IC50 result is on record as “Not Active”.

In the case of `C[C@@H](O)[C@H]1C(=O)N2C(C(=O)O)=C(S[C@@H]3CN[C@H](C(=O)N(C)C)C3)[C@H](C)[C@H]12` [MEROPENEM], the IC50 result was “Not Active”.

On to `CC[C@@H](CO)NC(=O)[C@@H]1C=C2c3cccc4c3c(cn4C)C[C@H]2N(C)C1` [METHYSERGIDE], for which the IC50 result is “Not Active”.

The target in another assay is Melanocortin receptor 4 (Homo sapiens, UniProt P32245). Further: in other assays of this panel Not Active means under 50% inhibition at 10 µM.
Melanocortin receptor 4, sequence (P32245 whole entry): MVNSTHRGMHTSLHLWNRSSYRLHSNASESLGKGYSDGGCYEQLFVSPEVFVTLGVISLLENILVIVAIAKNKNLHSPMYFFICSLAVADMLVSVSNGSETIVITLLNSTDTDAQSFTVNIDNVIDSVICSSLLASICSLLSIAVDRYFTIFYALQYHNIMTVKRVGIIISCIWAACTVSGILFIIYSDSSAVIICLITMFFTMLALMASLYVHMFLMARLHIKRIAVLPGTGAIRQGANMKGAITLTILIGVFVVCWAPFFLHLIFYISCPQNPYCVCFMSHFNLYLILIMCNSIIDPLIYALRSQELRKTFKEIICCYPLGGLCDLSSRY
Test: not given
The class given is cell membranes, Membrane. Conditions: hek293.
On to `CN1C2CCCC1CC(NC(=O)c1nn(C)c3ccccc13)C2` (configuration not stated) [GRANISETRON], for which the IC50 entry is “Not Active”.

Take `Nc1nc2c(c(=O)[nH]1)N(C=O)C(CNc1ccc(C(=O)N[C@@H](CCC(=O)O)C(=O)O)cc1)CN2` (some centres not stated) [LEUCOVORIN]: the IC50 result was “Not Active”.

For the molecule `C[C@@H](O)[C@H]1C(=O)N2C(C(=O)O)=C(S[C@@H]3CN[C@H](C(=O)N(C)C)C3)[C@H](C)[C@H]12` [MEROPENEM], the IC50 entry is on record as “Not Active”.

As to `CC[C@@H](CO)NC(=O)[C@@H]1C=C2c3cccc4c3c(cn4C)C[C@H]2N(C)C1` [METHYSERGIDE], the IC50 entry was “Not Active”.

The next assay addresses T1, 3-hydroxy-3-methylglutaryl-coenzyme A reductase (Homo sapiens, UniProt P04035).
T1 sequence (P04035 whole entry): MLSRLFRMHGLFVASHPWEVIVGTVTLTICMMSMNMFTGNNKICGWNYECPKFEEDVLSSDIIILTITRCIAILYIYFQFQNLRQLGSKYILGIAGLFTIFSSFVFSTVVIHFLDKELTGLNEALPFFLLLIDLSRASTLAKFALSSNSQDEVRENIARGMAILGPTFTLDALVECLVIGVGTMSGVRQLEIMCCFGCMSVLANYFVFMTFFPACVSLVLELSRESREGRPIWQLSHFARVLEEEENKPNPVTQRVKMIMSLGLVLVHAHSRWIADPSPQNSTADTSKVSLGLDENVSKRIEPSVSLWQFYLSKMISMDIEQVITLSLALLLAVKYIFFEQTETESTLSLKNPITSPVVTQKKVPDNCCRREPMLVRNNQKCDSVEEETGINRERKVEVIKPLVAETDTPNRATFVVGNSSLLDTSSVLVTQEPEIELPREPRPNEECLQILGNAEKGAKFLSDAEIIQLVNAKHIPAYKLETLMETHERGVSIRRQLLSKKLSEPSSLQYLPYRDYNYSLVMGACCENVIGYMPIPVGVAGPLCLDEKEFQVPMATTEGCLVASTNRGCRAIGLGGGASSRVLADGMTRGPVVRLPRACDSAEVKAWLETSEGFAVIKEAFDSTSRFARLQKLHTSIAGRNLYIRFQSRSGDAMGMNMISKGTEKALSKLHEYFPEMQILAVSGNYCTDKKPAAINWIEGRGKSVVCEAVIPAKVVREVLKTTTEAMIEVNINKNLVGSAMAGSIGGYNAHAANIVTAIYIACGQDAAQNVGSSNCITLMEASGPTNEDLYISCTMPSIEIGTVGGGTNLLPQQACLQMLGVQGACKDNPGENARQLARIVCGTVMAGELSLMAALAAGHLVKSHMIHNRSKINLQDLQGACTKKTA
Test: not given
Also on record: species or system Escherichia coli.
Conditions: not given
As for `CN1C2CCCC1CC(NC(=O)c1nn(C)c3ccccc13)C2` (configuration not stated) [GRANISETRON], the IC50 entry is “Not Active”.

Consider `Nc1nc2c(c(=O)[nH]1)N(C=O)C(CNc1ccc(C(=O)N[C@@H](CCC(=O)O)C(=O)O)cc1)CN2` (some centres not stated) [LEUCOVORIN], for which the IC50 entry is listed as “Not Active”.

Regarding `C[C@@H](O)[C@H]1C(=O)N2C(C(=O)O)=C(S[C@@H]3CN[C@H](C(=O)N(C)C)C3)[C@H](C)[C@H]12` [MEROPENEM], the IC50 entry is “Not Active”.

In the case of `CC[C@@H](CO)NC(=O)[C@@H]1C=C2c3cccc4c3c(cn4C)C[C@H]2N(C)C1` [METHYSERGIDE], the IC50 entry is recorded as “Not Active”.

Tested on in another assay: not listed separately
As to the kind of experiment: DRUGMATRIX: Sigma2 radioligand binding (ligand: [3H] Ifenprodil). Conditions: Not Active = under 50% inhibition at 10 µM. The class given is cell membranes, Rattus norvegicus, Wistar, Brain, Membrane.
As for `Nc1nc2c(c(=O)[nH]1)N(C=O)C(CNc1ccc(C(=O)N[C@@H](CCC(=O)O)C(=O)O)cc1)CN2` (some centres not stated) [LEUCOVORIN], the IC50 result is “Not Active” and the Ki entry is listed as “Not Active”.

For the molecule `C[C@@H](O)[C@H]1C(=O)N2C(C(=O)O)=C(S[C@@H]3CN[C@H](C(=O)N(C)C)C3)[C@H](C)[C@H]12` [MEROPENEM], the IC50 result is on record as “Not Active” and the Ki result is reported as “Not Active”.

A further assay has as its target T2, Endothelin-1 receptor (Homo sapiens, UniProt P25101). Further: in other assays of this panel Not Active means under 50% inhibition at 10 µM.
T2 sequence (P25101 whole entry): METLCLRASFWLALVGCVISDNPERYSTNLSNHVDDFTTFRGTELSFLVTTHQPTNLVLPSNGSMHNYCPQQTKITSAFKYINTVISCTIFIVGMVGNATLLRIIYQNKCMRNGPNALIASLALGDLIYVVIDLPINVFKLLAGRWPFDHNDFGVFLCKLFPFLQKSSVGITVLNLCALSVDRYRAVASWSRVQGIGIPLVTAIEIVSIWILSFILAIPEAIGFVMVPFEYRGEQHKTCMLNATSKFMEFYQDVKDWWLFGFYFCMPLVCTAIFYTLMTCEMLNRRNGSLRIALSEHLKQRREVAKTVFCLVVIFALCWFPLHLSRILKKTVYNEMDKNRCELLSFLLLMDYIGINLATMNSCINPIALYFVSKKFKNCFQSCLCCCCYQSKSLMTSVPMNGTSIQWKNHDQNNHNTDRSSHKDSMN
Test: not given
To be noted: cho-k1. The class given is cell membranes, CHO-K1, Membrane.
In the case of `CN1C2CCCC1CC(NC(=O)c1nn(C)c3ccccc13)C2` (configuration not stated) [GRANISETRON], the IC50 result is given as “Not Active”.

As to `Nc1nc2c(c(=O)[nH]1)N(C=O)C(CNc1ccc(C(=O)N[C@@H](CCC(=O)O)C(=O)O)cc1)CN2` (some centres not stated) [LEUCOVORIN], the IC50 result is given as “Not Active”.

With `C[C@@H](O)[C@H]1C(=O)N2C(C(=O)O)=C(S[C@@H]3CN[C@H](C(=O)N(C)C)C3)[C@H](C)[C@H]12` [MEROPENEM], the IC50 entry is on record as “Not Active”.

In the case of `CC[C@@H](CO)NC(=O)[C@@H]1C=C2c3cccc4c3c(cn4C)C[C@H]2N(C)C1` [METHYSERGIDE], the IC50 entry was “Not Active”.

A further assay deals with T3, C-C chemokine receptor type 4 (Homo sapiens, UniProt P51679).
T3 sequence (P51679 whole entry): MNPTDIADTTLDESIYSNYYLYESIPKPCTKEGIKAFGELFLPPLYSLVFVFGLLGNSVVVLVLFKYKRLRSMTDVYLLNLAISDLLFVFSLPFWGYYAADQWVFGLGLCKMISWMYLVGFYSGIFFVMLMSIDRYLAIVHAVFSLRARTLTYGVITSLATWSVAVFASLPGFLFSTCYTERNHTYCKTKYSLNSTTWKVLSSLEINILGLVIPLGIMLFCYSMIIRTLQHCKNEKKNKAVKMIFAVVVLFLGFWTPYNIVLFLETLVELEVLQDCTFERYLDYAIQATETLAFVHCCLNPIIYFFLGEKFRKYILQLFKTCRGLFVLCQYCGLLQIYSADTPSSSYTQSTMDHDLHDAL
Test: not given
To be noted: chem-1. The class given is cell membranes, Membrane.
Consider `CN1C2CCCC1CC(NC(=O)c1nn(C)c3ccccc13)C2` (configuration not stated) [GRANISETRON], for which the IC50 result is “Not Active”.

In the case of `Nc1nc2c(c(=O)[nH]1)N(C=O)C(CNc1ccc(C(=O)N[C@@H](CCC(=O)O)C(=O)O)cc1)CN2` (some centres not stated) [LEUCOVORIN], the IC50 entry is recorded as “Not Active”.

As to `C[C@@H](O)[C@H]1C(=O)N2C(C(=O)O)=C(S[C@@H]3CN[C@H](C(=O)N(C)C)C3)[C@H](C)[C@H]12` [MEROPENEM], the IC50 result is “Not Active”.

Regarding `CC[C@@H](CO)NC(=O)[C@@H]1C=C2c3cccc4c3c(cn4C)C[C@H]2N(C)C1` [METHYSERGIDE], the IC50 result is recorded as “Not Active”.

The target in another assay is T4, Caspase-1 (Homo sapiens, UniProt P29466).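 Further: Caspase-1 enzyme inhibition assay with a peptide substrate; in other assays of this panel Not Active means under 50% inhibition at 10 µM.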
T4 sequence (P29466 whole entry): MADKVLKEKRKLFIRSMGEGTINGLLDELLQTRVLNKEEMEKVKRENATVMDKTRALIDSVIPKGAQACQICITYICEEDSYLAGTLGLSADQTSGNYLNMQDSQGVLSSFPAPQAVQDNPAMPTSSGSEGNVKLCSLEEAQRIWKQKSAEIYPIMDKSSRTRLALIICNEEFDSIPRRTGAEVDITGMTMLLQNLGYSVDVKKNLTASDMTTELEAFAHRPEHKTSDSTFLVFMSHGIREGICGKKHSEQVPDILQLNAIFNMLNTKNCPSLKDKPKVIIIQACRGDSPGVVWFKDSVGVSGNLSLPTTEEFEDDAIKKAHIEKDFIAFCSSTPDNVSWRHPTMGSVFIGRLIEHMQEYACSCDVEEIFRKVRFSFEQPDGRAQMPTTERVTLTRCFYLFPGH
Test: not given
Also on record: species or system Escherichia coli.
Conditions: not given
For `CN1C2CCCC1CC(NC(=O)c1nn(C)c3ccccc13)C2` (configuration not stated) [GRANISETRON], the IC50 entry is “Not Active”.

On to `Nc1nc2c(c(=O)[nH]1)N(C=O)C(CNc1ccc(C(=O)N[C@@H](CCC(=O)O)C(=O)O)cc1)CN2` (some centres not stated) [LEUCOVORIN], for which the IC50 entry is given as “Not Active”.

Take `C[C@@H](O)[C@H]1C(=O)N2C(C(=O)O)=C(S[C@@H]3CN[C@H](C(=O)N(C)C)C3)[C@H](C)[C@H]12` [MEROPENEM]: the IC50 entry is recorded as “Not Active”.

In the case of `CC[C@@H](CO)NC(=O)[C@@H]1C=C2c3cccc4c3c(cn4C)C[C@H]2N(C)C1` [METHYSERGIDE], the IC50 entry is recorded as “Not Active”.

The next assay has as its target Receptor tyrosine-protein kinase erbB-2 (Homo sapiens, UniProt P04626). As to the kind of experiment: biochemical. The class given is cell-based, Insect cells. Conditions: insect cells.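 Further: inhibition of HER2 kinase enzyme activity, measured with Poly(Glu:Tyr) as the phosphorylation substrate; in other assays of this panel Not Active means under 50% inhibition at 10 µM.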
Take `CN1C2CCCC1CC(NC(=O)c1nn(C)c3ccccc13)C2` (configuration not stated) [GRANISETRON]: the IC50 result is recorded as “Not Active”.

With `Nc1nc2c(c(=O)[nH]1)N(C=O)C(CNc1ccc(C(=O)N[C@@H](CCC(=O)O)C(=O)O)cc1)CN2` (some centres not stated) [LEUCOVORIN], the IC50 entry was “Not Active”.

With `C[C@@H](O)[C@H]1C(=O)N2C(C(=O)O)=C(S[C@@H]3CN[C@H](C(=O)N(C)C)C3)[C@H](C)[C@H]12` [MEROPENEM], the IC50 entry is given as “Not Active”.

Consider `CC[C@@H](CO)NC(=O)[C@@H]1C=C2c3cccc4c3c(cn4C)C[C@H]2N(C)C1` [METHYSERGIDE], for which the IC50 entry is listed as “Not Active”.
